Assay results taken from article PMC5148673 (European journal of medicinal chemistry, 2016).

What was measured:
Assay type in all cases: cell-based, human
[1] = tested on: SKBR-3 cells; assay: Confocal microscopy intracellular distribution, SKBR-3; conditions: SKBR-3, 5 μM, 30 min, 37 °C
[2] = tested on: MCF-7 cells; assay: Confocal microscopy intracellular distribution, MCF-7; conditions: MCF-7, 30 min, 4 h, 24 h incubation
[3] = tested on: BT-474 cells; assay: Flow cytometry cell cycle analysis

| Compound | DOX fluorescence distribution in cells [1] | DOX fluorescence in cells [2] | effect on cell cycle inhibition [3] |
| --- | --- | --- | --- |
| COc1cccc2c1C(=O)c1c(O)c3c(c(O)c1C2=O)C[C@@](O)(C(=O)CO)C[C@@H]3O[C@H]1C[C@H](N)[C@H](O)[C@H](C)O1 [DOX, Doxorubicin] | strong DOX fluorescence in both the nucleus and cytoplasm | fluorescence was seen in 30 min |  |
| N=C(N)NCCC[C@H](N)C(=O)N[C@@H](CC(=O)N[C@@H](Cc1ccccc1)C(=O)O)c1cccc2ccccc12 [Compound 5, Arg-aminonaphthylpropionic acid-Phe] |  |  | no significant effect on cell cycle inhibition |
